# Test results: patent US11998610B2, “Conjugates and methods of using the same” (Flagship Pioneering Innovations V, Inc., priority 2018, dated 2024)
# What was measured:
# [1] = test system: E. coli CFT073 ATCC 700928 and/or E. coli Nissle 1917; test: Cell-based assay with ClbP with LCMS, ClbP positive strain
# Procedure, shortened: (§1)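 Compound (10 μM final) incubated 20 h at 37° C, aerobically, with 1:40-diluted overnight cultures of ClbP-positive E. coli or negative BL21(DE3), in duplicate, alongside uninoculated LB. Remaining parent quantified by LC-MS/MS (MRM) after acetonitrile quench, expressed as percent of media-alone.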
# E. coli BL21(DE3) [2] = test: Payload release in the presence of fecal matter, ClbP negative E. coli; assay type: cell-based; settings: 10 μM compound, anaerobic, 37° C., 20 h, LCMS
# Excerpt: (§2) This example is representative of the methods described in Example 103. Fecal samples were subjected to metagenomic whole-genome shotgun sequencing followed by querying the dataset for the presence of the clbP gene or by attempting to amplify the gene with primers specific for it by qPCR. Samples that gave a signal below the detection limit were used in subsequent steps. The fecal sample was resuspended as a 15% (w/v) slurry in Anaerobic Phosphate Buffer Saline.
# (§3) Following steps 1 and 2 as detailed in Example 98, E. coli CFT073 ATCC 700928, E. coli Nissle 1917, or E. coli BL21(DE3) were grown in liquid culture.
# (§4) In an anaerobic chamber, the E. coli strains were added to the fecal samples obtained in step 1 at a dilution level calculated to represent 0, 1, 10, 50, 90, 99, or 100% of all organisms present in PRAS dilution blank on a 200 μL volume. The test compound (10 μM final concentration) was added to the mixture. The test compound was also added to a bacteria-free media control under similar conditions. The plate was sealed and incubated at 37° C. for 20 h. Under similar conditions, a standard curve of both the starting material and the payload compound was made in bacteria-free media.
# (§5) After 20 h, an aliquot was tested for breakdown and release of a payload by LCMS by diluting serially to a final dilution of 1:100 first with Acetonitrile (10× dilution) and then with (1:1) Mobile Phase A-0.1% Formic Acid in Water:Mobile Phase B-0.1% Formic acid in Acetonitrile (1 OX dilution), with absolute quantification compared to the external standard curve. In an ideal case, the amount of payload released in the reaction(s) with ClbP-encoding E. coli was >75% of the theoretical maximum, and none was released in the E. coli BL21(DE3) and media-alone conditions. In an acceptable case, the amount of payload released in the reaction(s) with ClbP-encoding E. coli was 25-75% of the theoretical maximum, and <25% of the theoretical maximum was released in the E. coli BL21(DE3) and media-alone conditions. In a non-preferred case, the amount of payload released in the reactions(s) with ClbP-encoding E. coli was <25% of the theoretical maximum, and >25% of the theoretical maximum was released in the E. coli BL21(DE3) and media-alone conditions.
# E. coli BL21(DE3) [3] = test: Cell-based assay with ClbP with LCMS, ClbP negative strain; settings: 10 μM compound, 37° C., 20 h
# Procedure, shortened: as §1
# E. coli Nissle 1917 = test: Payload release in the presence of fecal matter, ClbP positive E. coli; assay type: cell-based; settings: 10 μM compound, anaerobic, 37° C., 20 h, LCMS
# Excerpt: as §2, §3, §4, §5
# [4] = Stability of conjugates in Simulated Gastric Fluid (SGF); assay type: in vitro ADME; settings: simulated gastric fluid pH 1.6 with pepsin, 1 μM, 37° C.
# Procedure, shortened: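 Compounds at 1 μM (from 1 mM DMSO stock) were incubated at 37°C in simulated gastric fluid, NaCl pH 1.6 with FaSSIF powder and 0.1 mg/mL pepsin. Aliquots taken at T0 and regular intervals were quenched with an equal volume of acetonitrile and analysed by LC/MS for degradation rate.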
compound,measurement,setting,value
"CCCCCCCC(=O)N[C@H](CC(N)=O)C(=O)NCCN(C)C(=O)Oc1ccc2c(C)cc(=O)oc2c1 [Example 70, 4-methyl-2-oxo-2H-chromen-7-yl (R)-(2-(4-amino-2-octanamido-4-oxobutanamido)ethyl)(methyl)carbamate]",% Remaining in ClbP Positve Relative to Media-Only,"[1]; ClbP-encoding E. coli, 10 μM compound, 37° C., 20 h",+ (between 25-75% compound remaining in the 20 μM WT ClbP reaction relative to the no-enzyme control)
same,Difference between the ClbP Positive and ClbP Negative release profiles,[1]; conclusion from Table 4,particularly favorable difference
same,% payload released in ClbP negative (BL21 DE3) at 1:1 ratio of E. coli to fecal bacteria,E. coli BL21(DE3) [2],1.9%
same,% Remaining in ClbP Negative Relative to Media-Only,E. coli BL21(DE3) [3],− (>75% compound remaining in the 20 μM WT ClbP reaction relative to the no-enzyme control)
same,% payload released in ClbP positive (Nissle 1917) at 1:1 ratio of E. coli to fecal bacteria,E. coli Nissle 1917,25.1%
same,Assay 1 (SGF) (% Remaining @ 1 hours),[4],C (>75% of the tested compound remaining)
